Measured values: patent US10653658B2, “Biofilm inhibiting compositions enhancing weight gain in livestock” (Akeso Biomedical, Inc., priority 2015, dated 2020)
Where two headings read alike, the source gives them in different places. Marks after values point to notes of the source that are not given here.

Assays:
[1] = Zootechnical efficacy of ferric citrate in milk replacer for rearing calves: body weight, feed intake, gain, FCR (Example 11); format: in vivo, rearing calves (German Holstein); settings: milk replacer: T1 Fe(II) sulfate 85 g Fe/tonne, T2 plus ferric citrate 500 g/tonne feed
Procedure: The composition of the basal calf milk replacer is shown in Table 36, and the feeding schedule in Table 37.
The milk replacer was dissolved in warm water at around 50° C. The concentration was 125 grams per liter. The drinking temperature was kept at 38 to 40° C.
Additionally, a commercial calf starter feed (mash) without phytogenics, probiotics, organic acids or enzymes was provided. Straw was also provided in pre-weighed amounts throughout the 56 day feeding period.

[2] = Calf health scoring: body temperature, faeces quality, coughing, nasal discharge, antibiotic treatments (Example 11)
Procedure: A study was performed to evaluate the potential of ferric citrate (CI-PLEX™ CHELATE) to improve calf health, welfare, and performance. A total of 80 rearing calves (German Holstein) were used from d 12 to d 68 of age. 40 calves were fed a basal milk replacer (T1 Control). For comparison, 40 calves were fed the basal milk replacer with addition of ferric (III) citrate (T2 CI-PLEX™ CHELATE, 500 g/tonne feed) with a microtracer present at a rate of 10%, equivalent to 50 g/tonne for product identification purposes only. The basal milk replacer was supplemented with ferrous (II) sulfate at normal commercial rates (supplying 85 g Fe/tonne feed). T2 was also supplemented with normal commercial practice of Fe (ferrous (II) sulfate at 85 g Fe/tonne feed) with Fe at 85 g/tonne feed from the ferric (III) citrate (CI-PLEX™ CHELATE). […] The basal milk replacer batch was produced, and then split into 2 aliquots prior to adding the different inorganic or organic Fe sources to T1, and T2 diets. Calves were housed in rearing units, each unit with pens on either side of a central aisle.
The following parameters were measured: mean pen body weight (BW), feed intake (FI), body weight gain (BWG), feed conversion ratio (FCR, feed:gain) at study start and on days 7, 14, 21, 28, 35, 42, 49 and 56 days on trial. In addition, the following were also recorded: body temperature, faeces quality, coughing score, and nasal discharge.
The scoring of faecal consistency and of rectal temperature, coughing, nasal discharge as well as eye and ear scores were ranked daily.

[3] = test system: Pseudomonas aeruginosa PAO-1 strain
Procedure: Pseudomonas aeruginosa PAO-1 strain was routinely grown on either LB (Luria-Bertani, Oxoid, UK) agar plates at 37° C. or in broth at 37° C. with 200 rpm shaking. UV-sterilized glass slides were incubated in either 15 mL RPMI-1640 defined medium (Sigma, UK) or 15 mL RPMI-1640 with Fe-Lac inoculated with diluted (OD600=0.01) bacteria from overnight cultures at 37° C. with 60 rpm shaking for 72 hours. The slides were removed from bacterial culture and washed with 15 mL phosphate buffered saline at room temperature for 5 minutes three times and then rinsed with distilled H2O. After washing, the slides were stained with 20 μM SYTO17 dye (Invitrogen, UK) at room temperature for 30 minutes. After removing excess staining dye and air-drying, the samples were examined using a Carl Zeiss LSM 700 Laser Scanning Microscope with ZEN 2009 imaging software (Carl Zeiss, Germany). The coverage rate of bacteria on the surface was analysed using open source Image J 1.44 software (National Institute of Health, US).
Pseudomonas aeruginosa PAO-1 strain was routinely grown on either LB (Luria-Bertani, Oxoid, UK) agar plates at 37° C. or in broth at 37° C. with 200 rpm shaking. UV-sterilized glass slides were incubated in either 15 mL RPMI-1640 defined medium (Sigma, UK) or 15 mL RPMI-1640 with Fe-Cit inoculated with diluted (OD600=0.01) bacteria from overnight cultures at 37° C. with 60 rpm shaking for 72 hours. The slides were removed from bacterial culture and washed with 15 mL phosphate buffered saline at room temperature for 5 minutes three times and then rinsed with distilled H2O. After washing, the slides were stained with 20 μM SYTO17 dye (Invitrogen, UK) at room temperature for 30 minutes. After removing excess staining dye and air-drying, the samples were examined using a Carl Zeiss LSM 700 Laser Scanning Microscope with ZEN 2009 imaging software (Carl Zeiss, Germany). The coverage rate of bacteria on the surface was analysed using open source Image J 1.44 software (National Institute of Health, US).
Pseudomonas aeruginosa PAO-1 strain was routinely grown on either LB (Luria-Bertani, Oxoid, UK) agar plates at 37° C. or in broth at 37° C. with 200 rpm shaking. […] The slides were removed from bacterial culture and washed with 15 mL phosphate buffered saline at room temperature for 5 minutes three times and then rinsed with distilled H2O. After washing, the slides were stained with 20 μM SYTO17 dye (Invitrogen, UK) at room temperature for 30 minutes. After removing excess staining dye and air-drying, the samples were examined using a Carl Zeiss LSM 700 Laser Scanning Microscope with ZEN 2009 imaging software (Carl Zeiss, Germany). The coverage rate of bacteria on the surface was analysed using open source Image J 1.44 software (National Institute of Health, US).
Pseudomonas aeruginosa PAO-1 strain was routinely grown on either LB (Luria-Bertani, Oxoid, UK) agar plates at 37° C. or in broth at 37° C. with 200 rpm shaking. UV-sterilized glass slides were incubated in either 15 mL RPMI-1640 defined medium (Sigma, UK) or 15 mL RPMI-1640 with Fe-Gly inoculated with diluted (OD600=0.01) bacteria from overnight cultures at 37° C. with 60 rpm shaking for 72 hours. The slides were removed from bacterial culture and washed with 15 mL phosphate buffered saline at room temperature for 5 minutes three times and then rinsed with distilled H2O. […] The coverage rate of bacteria on the surface was analysed using open source Image J 1.44 software (National Institute of Health, US).

E. coli = assay: Faecal E. coli counts in weaner pigs (Example 7); format: in vivo; settings: 0.2 g/L in drinking water; one male pig per pen
Excerpt: (§1) Faeces, cleanliness and health scores was taken daily (Appendix). Faecal scores especially are indicative of diarrhea incidence, and are used in the industry as a general easy to observe gut health indicator. […] Faecal samples were stored under conditions allowing submission to SAC Veterinary Services for quantification of lactobacilli and coliforms, and their ratio (L:C ratio). These are used as key indicators for gut health, with a greater L:C ratio being indicative to better gut health.

lactobacilli = assay: Faecal lactobacilli counts and L:C ratio in weaner pigs (Example 7); format: in vivo; settings: 0.2 g/L in drinking water; one male pig per pen
Excerpt: as §1

Campylobacter jejuni = assay: Campylobacter carriage in chickens after oral challenge, caecal contents at day 35 (Example 9); format: in vivo; settings: 340 μM in the drinking water
Procedure: A study was performed to evaluate reduction of Campylobacter carriage in chickens using ferric lactate in one treatment group, and FeQ (Q-PLEX) in a second treatment group. A third treatment group served as a positive control. The ferric lactate and FeQ were administered to the treatment groups at a concentration of 340 μM in the drinking water. Each treatment group comprised 12 birds per pen. All three treatment groups were orally challenged with 10^5 cfu of Campylobacter jejuni at day 14 of the trial. At day 35 all birds were euthanized, and quantitative bacteriology performed on caecal contents.

[4] = 0.2 g/L in drinking water; weaner pigs
Excerpt: Animal Details • Number of treatments: 4 treatments • Number of replicates: 4 pens • Number of animals per pen: 4 pigs (balanced for sex as much as possible) • Number of pens in study: 16 pens • Animal species and breed: newly weaned pigs (Large White×Landrace) • Total number of animals: 64
There were four (4) treatments, each having 4 replicate pens with 4 pigs per replicate pen, i.e. 16 pigs per treatment or 64 pigs in total.
The feeds used were standard commercial, non-medicated feeds, tailored for weaner pigs. The feeds were offered as a 3 mm pellet and ad libitum. Water will also be available ad libitum.
The Ethology 3 building of SRUC's Easter Howgate Pig Unit were used in this study. This house consists of 6 rooms, each with 4 pens, so holds up to 24 pens of 4 m^2 each; for this study, 4 rooms were used. The animal house, which is an environmentally controlled building, were sanitized prior to use and between rounds. Pigs were placed at weaning on a thick layer of fresh white wood shavings or straw in pens. Pens were balanced as much as possible for litter origin and sex (2 intact males and 2 females). Pens were bedded with additional sawdust or straw as required, and were equipped with a single feeder and nipple drinker. Foods were available ad libitum throughout. Water were supplied via measured bottles per pen, and also available. Environmental temperature were maintained at 26° C. for the first 4 days after weaning and then decreased by 2° C. for the remainder of the experiment. Lights were on from 08:00 am till 18:00 μm and night-lights maintained between 18:00 μm and 08:00 am.
Pigs were individually weighed at day 0, 6 and 13. Pigs removed or found dead weighed, and date noted.
The volume of feed offered per pen was recorded daily from day 0 until day 12, inclusive. Feed refusals were recorded daily from day 1 until day 13, inclusive.
Pig weights, feed offered and feed refusals were used to determine averaged daily weight gain, daily feed intake and feed conversion ratio, over day 0 to 6, 6 to 13, as well as 0 to 13.
From day 0 until day 13, the volume of water offered per pen was recorded daily and water levels were recorded from the water bottles prior to morning feeding before tupping up.
Data gathered were analyzed using analysis of variance (ANOVA), to test for the effect of Fe-complex provision per se and Fe-complex type. Treatments were allocated in blocks within Ethology 3, as each of the four proposed treatments were in each of the four rooms used. As such, rooms were used as block in the model. Effects were considered significant at P<0.05.

[5] = test system: Campylobacter jejuni NCTC 11168; assay: Biofilm formation on plastic coated UV beads (Example 6); settings: Fe-Tart and Fe-Cit at 50, 100, and 300 μM; FeQ (QPLEX) at 300
[6] = Score 0: normal, 1: slightly disorder, 2: middle disorder, 3: severe disorder

What does the source list for `O=S(=O)([O-])[O-].[Fe+2]` [Fe (II)sulfate]?
ADFI 1-21 d of rearing [1]: 804 ± 38 g; ADFI 1-56 d of rearing [1]: 1.49 ± 0.02 kg; ADFI 22-56 d of rearing [1]: 1.90 ± 0.02 kg; ADG 1-21 d of rearing [1]: 268 ± 30^a g; ADG 1-56 d of rearing [1]: 723 ± 36^a g; ADG 22-56 d of rearing [1]: 792 ± 48^a g; FCR 1-21 d of rearing [1]: 1.339 ± 0.142^a feed:gain; FCR 1-56 d of rearing [1]: 2.065 ± 0.100^a feed:gain; FCR 22-56 d of rearing [1]: 2.408 ± 0.148^a feed:gain; Mean BW at d 56 of rearing [1]: 91.9 ± 2.0^a kg; Mean daily body temperature score 1-56 d of rearing [2, 6]: 0.09 ± 0.11^a; Mean daily coughing score 1-56 d of rearing [2, 6]: 0.51 ± 0.13; Mean daily ear score 1-56 d of rearing [2, 6]: 0.04 ± 0.07; Mean daily eye score 1-56 d of rearing [2, 6]: 0.04 ± 0.07; Mean daily faecal score 1-56 d of rearing [2, 6]: 0.68 ± 0.14; Mean daily nasal discharge score 1-56 d of rearing [2, 6]: 0.44 ± 0.12; % excluded, 1-56 d of rearing ([2]; bovine, in vivo): 0%; No calves excluded, 1-56 d of rearing ([2]; bovine, in vivo): 1; No calves treated with antibiotics, 1-56 d of rearing ([2]; of 40 calves per treatment): 3

With `NCC(=O)[O-].NCC(=O)[O-].NCC(=O)[O-].[Fe+3]` [Fe-Gly, Ferric glycinate] as the compound, how does the “biofilm formation (coverage rate on glass slide)” value ([3]; 300 μM, 72 hours) read?
Its value is “able to inhibit biofilm formation”.

And the “biofilm formation (coverage rate on glass slide)” value ([3]; 100 and 300 μM, 72 hours)?
Its value is “inhibits the formation of biofilm”.

Which “Faecal E. coli counts, day 0 post weaning” value (E. coli) does the source give for `CC(O)C(=O)O.CC(O)C(=O)O.CC(O)C(=O)O.[Fe]` (centres unmarked) [Fe-Lac, ferric lactate] here?
The value was 8.40 10log cfu/g.

And the “Faecal E. coli counts, day 4 post weaning” value (E. coli)?
Its value is 7.80 10log cfu/g.

What about the “Faecal E. coli counts, day 7 post weaning” value (E. coli) of the same compound?
Its value is 6.37 10log cfu/g.

And the “Faecal E. coli counts, day 14 post weaning” value (E. coli)?
Its value is 5.98 10log cfu/g.

What about the “Faecal lactobacilli counts, day 0 post weaning” value (lactobacilli) of the same compound?
The value was 8.68 10log cfu/g.

And the “Faecal lactobacilli counts, day 4 post weaning” value (lactobacilli)?
Its value is 8.76 10log cfu/g.

What about the “Faecal lactobacilli counts, day 7 post weaning” value (lactobacilli) of the same compound?
The value was 8.97 10log cfu/g.

What about the “Faecal lactobacilli counts, day 14 post weaning” value (lactobacilli) of the same compound?
The value was 8.77 10log cfu/g.

What about the “Lactobacilli to E. coli ratio (L:C), day 0 post weaning” value (lactobacilli) of the same compound?
Its value is 1.03.

And the “Lactobacilli to E. coli ratio (L:C), day 4 post weaning” value (lactobacilli)?
The value was 1.08.

What about the “Lactobacilli to E. coli ratio (L:C), day 7 post weaning” value (lactobacilli) of the same compound?
Its value is 1.33.

And the “Lactobacilli to E. coli ratio (L:C), day 14 post weaning” value (lactobacilli)?
The value was 1.45.

What about the “levels of Campylobacter in caeca at day 35, comparison between treatments (FIG. 11)” value (Campylobacter jejuni) of the same compound?
The value was “lowest levels”.

What about the “levels of Campylobacter in caeca at day 35 compared with positive control (FIG. 11)” value (Campylobacter jejuni; oral challenge at day 14) of the same compound?
Its value is “lower levels of Campylobacter in their caeca”.

And the “biofilm formation (coverage rate on glass slide), dispersion effect (FIG. 5B)” value ([3]; 10, 50, and 100 μM)?
Its value is “inhibits the formation of biofilm”.

And the “biofilm formation (coverage rate on glass slide), titration effect (FIG. 5A)” value ([3]; 50, 100, and 300 μM, 72 hours)?
The value was “inhibits the formation of biofilm”.

What about the “Averaged body weight gain, days 0 to 4 post weaning” value [4] of the same compound?
The value was 153 g/day/pig.

What about the “Averaged body weight gain, days 0 to 7 post weaning” value [4] of the same compound?
The value was 172 g/day/pig.

And the “Averaged body weight gain, days 0 to 14 post weaning” value [4]?
The value was 380 g/day/pig.

And the “Averaged body weight gain, days 4 to 7 post weaning” value [4]?
The value was 197 g/day/pig.

What about the “Averaged body weight gain, days 7 to 14 post weaning” value [4] of the same compound?
Its value is 587 g/day/pig.

And the “Averaged daily feed intake, days 0 to 4 post weaning” value [4]?
Its value is 154 g/day/pig.

What about the “Averaged daily feed intake, days 0 to 7 post weaning” value [4] of the same compound?
The value was 223 g/day/pig.

And the “Averaged daily feed intake, days 0 to 14 post weaning” value [4]?
Its value is 378 g/day/pig.

What about the “Averaged daily feed intake, days 4 to 7 post weaning” value [4] of the same compound?
The value was 315 g/day/pig.

What about the “Averaged daily feed intake, days 7 to 14 post weaning” value [4] of the same compound?
The value was 532 g/day/pig.

And the “Body weights, day 0 post weaning” value [4]?
The value was 9.74 kg/pig.

What about the “Body weights, day 4 post weaning” value [4] of the same compound?
The value was 10.35 kg/pig.

And the “Body weights, day 7 post weaning” value [4]?
The value was 10.94 kg/pig.

What about the “Body weights, day 14 post weaning” value [4] of the same compound?
The value was 15.05 kg/pig.

What about the “Feed conversion ratio, days 0 to 4 post weaning” value [4] of the same compound?
Its value is 0.54 g/g.

What about the “Feed conversion ratio, days 0 to 7 post weaning” value [4] of the same compound?
Its value is 2.67 g/g.

And the “Feed conversion ratio, days 0 to 14 post weaning” value [4]?
The value was 1.00 g/g.

What about the “Feed conversion ratio, days 7 to 14 post weaning” value [4] of the same compound?
The value was 0.91 g/g.

Which results are given for `O=C([O-])C(O)C(O)C(=O)[O-].O=C([O-])C(O)C(O)C(=O)[O-].O=C([O-])C(O)C(O)C(=O)[O-].[Fe+3].[Fe+3]` (centres unmarked) [Fe-Tart, ferric tartrate]?
Faecal E. coli counts, day 0 post weaning (E. coli): 8.67 10log cfu/g; Faecal E. coli counts, day 4 post weaning (E. coli): 6.42 10log cfu/g; Faecal E. coli counts, day 7 post weaning (E. coli): 6.51 10log cfu/g; Faecal E. coli counts, day 14 post weaning (E. coli): 6.43 10log cfu/g; Faecal lactobacilli counts, day 0 post weaning (lactobacilli): 8.84 10log cfu/g; Faecal lactobacilli counts, day 4 post weaning (lactobacilli): 8.94 10log cfu/g; Faecal lactobacilli counts, day 7 post weaning (lactobacilli): 9.48 10log cfu/g; Faecal lactobacilli counts, day 14 post weaning (lactobacilli): 8.79 10log cfu/g; biofilm formation (coverage rate on glass slide) ([3]; 100 and 300 μM, 72 hours): inhibits the formation of biofilm; C. jejuni biofilm formation on plastic coated UV beads (FIG. 9) [5]: inhibited C. jejuni biofilm formation
